From PubChem BioAssay (NCI)
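Values below derive from 48-hour exposures of cells grown in 96-well plates, with endpoints linearly interpolated between the two concentrations bracketing the appropriate inhibition level. TGI is the concentration that stops growth completely.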

What was measured:
Experiment in all cases: NCI-60 cell line screen, 48 h
A498 renal = system: A498 renal
CAKI-1 renal = system: CAKI-1 renal
MOLT-4 leukemia = system: MOLT-4 leukemia
NCI-H23 lung = system: NCI-H23 lung
OVCAR-3 ovarian = system: OVCAR-3 ovarian
OVCAR-5 ovarian = system: OVCAR-5 ovarian
OVCAR-8 ovarian = system: OVCAR-8 ovarian
SK-MEL-28 melanoma = system: SK-MEL-28 melanoma
U251 CNS = system: U251 CNS
SF-268 CNS = system: SF-268 CNS

Row | SMILES | TGI (A498 renal) [µM] | TGI (CAKI-1 renal) [µM] | TGI (MOLT-4 leukemia) [µM] | TGI (NCI-H23 lung) [µM] | TGI (OVCAR-3 ovarian) [µM] | TGI (OVCAR-5 ovarian) [µM] | TGI (OVCAR-8 ovarian) [µM] | TGI (SK-MEL-28 melanoma) [µM] | TGI (U251 CNS) [µM] | TGI (SF-268 CNS) [µM]
1 | NCc1ccc(-c2ccc(-c3ccc(-c4ccc(CN)s4)s3)s2)s1 | > 100 | > 100 | > 100 | > 100 | > 100 | > 100 | > 100 | > 100 | > 100 | –
2 | COC(=O)c1ccccc1C1CN=NC12Cc1ccc3ccccc3c1C2=O (configuration not stated) | > 100 | > 100 | > 100 | – | > 100 | > 100 | > 100 | > 100 | > 100 | > 100
3 | CCOC(=O)CC(=O)NC1CC2CCC1(C)C2(C)C (configuration not stated) | > 100 | > 100 | > 100 | > 100 | > 100 | > 100 | > 100 | > 100 | > 100 | > 100
4 | CC(=O)OCC1OC(On2ccccc2=S)C(OC(C)=O)C(OC(C)=O)C1OC(C)=O (configuration not stated) | > 100 | > 100 | > 100 | > 100 | > 100 | > 100 | > 100 | > 100 | > 100 | > 100
5 | Cc1ccc(S(=O)ON2CCC(C(=O)O)(c3ccccc3)CC2)cc1 (configuration not stated) | > 100 | > 100 | > 100 | > 100 | > 100 | > 100 | > 100 | > 100 | > 100 | > 100
6 | CCC1(C)C=Cc2c(cc(OC)c3c(=O)c4ccccc4n(C)c23)O1 (configuration not stated) | > 10 | 2.53 | > 10 | > 10 | > 10 | > 10 | > 10 | > 10 | > 10 | > 10
7 | CCOC(=O)c1nc2cc(N3CCOCC3)c(F)cc2[nH]c1=O | > 100 | > 100 | > 100 | > 100 | > 100 | > 100 | > 100 | > 100 | > 100 | > 100
8 | O=C(NN=C1CCN(Cc2ccccc2)CC1)C(O)(c1ccccc1)c1ccccc1 | – | – | > 100 | > 100 | – | > 100 | > 100 | > 100 | > 100 | > 100
9 | CCN(CC)CCn1c(C(C)(C)C)nc2ccccc21 | – | > 100 | > 100 | > 100 | > 100 | > 100 | > 100 | > 100 | > 100 | > 100
10 | NC(N)=NCCCC(N=c1c2ccccc2n(O)c2ccccc12)C(=O)O (configuration not stated) | > 100 | – | > 100 | > 100 | > 100 | > 100 | > 100 | 90.1 | > 100 | > 100
11 | CCOC(=O)CN1CCNCCN(CC(=O)OCC)CCNCC1 | > 100 | > 100 | > 100 | – | > 100 | > 100 | > 100 | > 100 | > 100 | –
12 | CSc1ccc2c(cc1=O)[C@@H](NC(C)=O)CCc1cc(O)c(O)c(O)c1-2 | > 100 | > 100 | > 100 | 44.9 | 34.2 | 35.9 | 42.3 | > 100 | 45.3 | 38.6
13 | CCOC(=O)c1c(C)n(Cc2ccccc2)c(=O)c2ccccc2c(=O)c2c(=O)ccc(=O)c1=2 | > 100 | > 100 | > 100 | > 100 | > 100 | > 100 | > 100 | > 100 | > 100 | > 100
14 | COc1c(CC=C(C)C)c(O)c(C(CC(C)C)c2c(O)c(C(C)=O)c(O)c3c2OC(C(C)(C)O)C3)c(O)c1C(C)=O (configuration not stated) | > 12.5 | > 12.5 | > 12.5 | > 12.5 | > 12.5 | > 12.5 | > 12.5 | > 12.5 | – | > 12.5
15 | CN1CCCN2CCN(C)CCN(CC1)CC2 | > 100 | > 100 | > 100 | > 100 | > 100 | > 100 | > 100 | > 100 | > 100 | > 100
16 | CCOC(=O)C1C(=O)CC(O)(OCC)C(C(=O)OCC)C1c1ccc(OC)cc1 (configuration not stated) | > 100 | > 100 | > 100 | > 100 | > 100 | > 100 | > 100 | > 100 | > 100 | > 100
17 | Cc1ccc(-c2c(C#N)c(-c3ccc(Cl)cc3)c(C#N)c(=O)n2NS(=O)(=O)c2ccccc2)cc1 | > 100 | > 100 | > 100 | – | – | > 100 | > 100 | > 100 | > 100 | > 100
18 | Cn1cc(C(=O)c2nccc3c2cnc2ccccc23)ccc1=O | > 100 | > 100 | > 100 | > 100 | > 100 | > 100 | > 100 | > 100 | > 100 | > 100
19 | CCN1CC2=C(N=c3s/c(=C\c4ccc(Cl)cc4)c(=O)n3C2c2ccc(Cl)cc2)/C(=C/c2ccc(Cl)cc2)C1 (configuration not stated) | 64.6 | > 100 | > 100 | > 100 | > 100 | > 100 | > 100 | > 100 | > 100 | 80.6
20 | O=C(O)CC(C(=O)O)c1ccccc1[N+](=O)[O-] (configuration not stated) | > 100 | > 100 | – | > 100 | > 100 | > 100 | > 100 | > 100 | > 100 | > 100
21 | Cc1ccc(/C=C2\CN(C)CC3=C2OC(N)=C(C#N)C3c2ccc(C)cc2)cc1 (configuration not stated) | 45.2 | 74.6 | > 51 | 62.6 | 29.8 | 55.7 | > 92 | > 71.5 | > 61.1 | > 100
22 | CCN(CC)C(=S)SS(=O)(=O)c1ccccc1C(=O)O | > 100 | > 100 | > 100 | > 100 | > 100 | > 100 | > 100 | > 100 | > 100 | > 100
